Test results published in ChEMBL document CHEMBL5365546, “The Potential of NOD-like Receptor Protein 3 Inflammasome Inhibitors in the Treatments of Diseases” (ACS Med Chem Lett, 2023).

What was measured:
[1] = molecular target: T1, NACHT, LRR and PYD domains-containing protein 3 (Homo sapiens, UniProt Q96P20); assay: Inhibition of NLRP3 in human PBMC assessed as reduction in LPS-induced TNF level preincubated for 30 mins followed by LPS-stimulation and measured after 6 hrs by MSD assay; assay type: cell-based
[2] = molecular target: T1, NACHT, LRR and PYD domains-containing protein 3; assay: Inhibition of NLRP3 in human PBMC assessed as reduction in LPS-induced IL-1beta level preincubated for 30 mins followed by LPS-stimulation and measured after 6 hrs by MSD assay; assay type: cell-based

T1 sequence (Q96P20 whole entry, the tested form may be a part): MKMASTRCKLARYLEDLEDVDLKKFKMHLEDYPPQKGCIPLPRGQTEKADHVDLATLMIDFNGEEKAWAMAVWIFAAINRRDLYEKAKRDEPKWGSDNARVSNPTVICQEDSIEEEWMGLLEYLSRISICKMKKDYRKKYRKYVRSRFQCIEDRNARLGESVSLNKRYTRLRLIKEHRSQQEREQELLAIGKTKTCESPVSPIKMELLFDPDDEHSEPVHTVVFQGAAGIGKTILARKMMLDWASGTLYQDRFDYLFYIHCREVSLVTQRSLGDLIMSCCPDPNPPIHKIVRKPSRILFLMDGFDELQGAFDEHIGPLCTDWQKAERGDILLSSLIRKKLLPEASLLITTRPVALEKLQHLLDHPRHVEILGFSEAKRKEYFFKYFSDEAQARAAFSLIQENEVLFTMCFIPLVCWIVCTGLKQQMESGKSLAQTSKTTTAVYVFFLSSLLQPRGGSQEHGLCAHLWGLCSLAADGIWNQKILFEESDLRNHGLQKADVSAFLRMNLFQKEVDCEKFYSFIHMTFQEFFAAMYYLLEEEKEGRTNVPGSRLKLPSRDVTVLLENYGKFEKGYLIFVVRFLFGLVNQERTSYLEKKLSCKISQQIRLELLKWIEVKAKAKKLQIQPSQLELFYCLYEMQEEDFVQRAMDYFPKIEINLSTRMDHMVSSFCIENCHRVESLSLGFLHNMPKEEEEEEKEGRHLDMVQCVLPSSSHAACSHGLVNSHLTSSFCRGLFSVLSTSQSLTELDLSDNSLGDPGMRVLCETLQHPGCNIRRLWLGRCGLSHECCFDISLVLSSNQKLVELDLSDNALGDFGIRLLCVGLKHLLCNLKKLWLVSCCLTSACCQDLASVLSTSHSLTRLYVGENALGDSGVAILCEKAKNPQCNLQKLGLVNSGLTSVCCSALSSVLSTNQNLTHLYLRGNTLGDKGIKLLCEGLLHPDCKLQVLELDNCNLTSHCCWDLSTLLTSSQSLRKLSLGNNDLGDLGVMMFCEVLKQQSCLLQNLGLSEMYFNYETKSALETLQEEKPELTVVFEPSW

Structure (SMILES)	AC50 [1]	AC50 [2]
CC(C)c1nn(CC(=O)Nc2ccc3nncn3c2)c(=O)cc1N1CC[C@@H]2C[C@@H]2C1	> 20000 nM	500 nM
CC(C)c1nn(CC(=O)Nc2ccc3nncn3c2)c(=O)cc1N1CC2CC2C1 (stereo not given)	> 10000 nM	90 nM
CC(C)c1nn(CC(=O)Nc2ccc3nncn3c2)c(=O)cc1N1C2CCC1CC2	> 10000 nM	1020 nM
CC(C)c1nn(CC(=O)Nc2ccc3nncn3c2)c(=O)cc1N1CCCCC1	> 20000 nM	1230 nM
CC(C)c1nn(CC(=O)Nc2ccc3nncn3c2)c(=O)cc1N1CCCC1Cc1ccccn1 (stereo not given)	> 20000 nM	1280 nM

Continued, values first:

AC50 [1]	AC50 [2]	Structure (SMILES)
> 20000 nM	420 nM	CC(C)c1nn(CC(=O)Nc2ccc3nncn3c2)c(=O)cc1N1CC[C@H](C)C1
> 10000 nM	330 nM	CC(C)c1nn(CC(=O)Nc2ccc3nncn3c2)c(=O)cc1N1CCCC1
> 10000 nM	530 nM	CC(C)c1nn(CC(=O)Nc2ccc3nncn3c2)c(=O)cc1N1CC[C@@H](F)C1
> 10000 nM	> 15000 nM	CC(C)c1nn(CC(=O)Nc2ccc3nncn3c2)c(=O)cc1Nc1ccccc1
> 10000 nM	1530 nM	CC(C)c1nn(CC(=O)Nc2ccc3nncn3c2)c(=O)cc1NCC1CC1
